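Compound exposure: 48 hours, 5 concentrations, 96-well plates. At the GI50, growth is halved. TGI is the concentration that stops growth completely.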
Key:
Test in all cases: NCI tumour cell line growth inhibition, 48 h; in the data active = GI50 below about 0.43 µM; inactive = the rest
[1] = tested on: MCF7 breast
[2] = tested on: RXF 393 renal
[3] = tested on: SK-OV-3 ovarian
[4] = tested on: OVCAR-3 ovarian
[5] = tested on: BT-549 breast
[6] = tested on: TK-10 renal
[7] = tested on: A498 renal
[8] = tested on: K-562 leukemia
[9] = tested on: HS 578T breast
[10] = tested on: HCC-2998 colon
[11] = tested on: NCI-H460 lung
[12] = tested on: ACHN renal
[13] = tested on: SK-MEL-2 melanoma
[14] = tested on: UACC-257 melanoma
[15] = tested on: HL-60(TB) leukemia
[16] = tested on: CAKI-1 renal
[17] = tested on: MDA-MB-435
[18] = tested on: 786-0 renal
[19] = tested on: SR leukemia
[20] = tested on: PC-3 prostate
[21] = tested on: SF-539 CNS
[22] = tested on: MOLT-4 leukemia
[23] = tested on: UACC-62 melanoma
[24] = tested on: SK-MEL-5 melanoma
[25] = tested on: SNB-75 CNS
[26] = tested on: KM12 colon
[27] = tested on: COLO 205 colon
[28] = tested on: SF-295 CNS
[29] = tested on: NCI/ADR-RES ovarian
[30] = tested on: SW-620 colon
[31] = tested on: SK-MEL-28 melanoma
[32] = tested on: CCRF-CEM leukemia
[33] = tested on: HOP-62 NSCLC
[34] = tested on: SF-268 CNS
[35] = tested on: M14 melanoma
[36] = tested on: DU-145 prostate
[37] = tested on: LOX IMVI melanoma
[38] = tested on: OVCAR-5 ovarian
[39] = tested on: HCT-116 colon
[40] = tested on: U251 CNS
[41] = tested on: OVCAR-8 ovarian
[42] = tested on: MALME-3M melanoma
[43] = tested on: RPMI-8226 leukemia
[44] = tested on: NCI-H522 lung
[45] = tested on: IGROV1 ovarian
[46] = tested on: SN12C renal
[47] = tested on: MDA-MB-231 breast
[48] = tested on: SNB-19 CNS
[49] = tested on: T-47D breast
[50] = tested on: NCI-H23 lung
[51] = tested on: NCI-H226 lung
[52] = tested on: UO-31 renal
[53] = tested on: A549 NSCLC
[54] = tested on: OVCAR-4 ovarian
[55] = tested on: HT29 colon
[56] = tested on: HCT-15 colon
[57] = tested on: EKVX NSCLC
[58] = tested on: HOP-92 NSCLC

O=[N+]([O-])c1ccc2c(c1)C(c1ccccc1Cl)=Nc1cn[nH]c1N2
> 23.3 µM: TGI [7]
> 25 µM: TGI [1] | TGI [2] | TGI [3] | TGI [4] | TGI [5] | TGI [6] | TGI [8] | TGI [9] | TGI [10] | TGI [11] | TGI [12] | TGI [14] | TGI [15] | TGI [16] | TGI [17] | TGI [18] | TGI [19] | TGI [20] | TGI [21] | TGI [22] | TGI [23] | TGI [24] | TGI [26] | TGI [27] | TGI [29] | TGI [30] | TGI [31] | TGI [32] | TGI [33] | TGI [34] | TGI [35] | TGI [36] | TGI [37] | TGI [38] | TGI [39] | TGI [40] | TGI [41] | TGI [42] | TGI [43] | TGI [44] | TGI [45] | TGI [46] | TGI [47] | TGI [48] | TGI [49] | TGI [50] | TGI [51] | TGI [52] | TGI [53] | TGI [54] | TGI [55] | TGI [56]
> 21.2 µM: TGI [25]
> 22 µM: TGI [13]
> 23.8 µM: TGI [28]
inactive: GI50 [1] 10.9 µM | GI50 [2] 4.57 µM | GI50 [3] 12.5 µM | GI50 [4] 14.1 µM | GI50 [5] 16.2 µM | GI50 [6] 15.5 µM | GI50 [7] 8.27 µM | GI50 [8] 19 µM | GI50 [9] 7.76 µM | GI50 [10] 24.7 µM | GI50 [11] 16.1 µM | GI50 [12] 14.4 µM | GI50 [13] 10.7 µM | GI50 [14] > 25 µM | GI50 [15] 14.4 µM | GI50 [16] 12.7 µM | GI50 [17] 15.1 µM | GI50 [18] 11.8 µM | GI50 [19] 15.2 µM | GI50 [20] 14.3 µM | GI50 [21] 14.6 µM | GI50 [22] 10.5 µM | GI50 [23] 16 µM | GI50 [24] 11.3 µM | GI50 [25] 0.618 µM | GI50 [26] 12.1 µM | GI50 [27] 9.43 µM | GI50 [28] 8.48 µM | GI50 [29] 23.1 µM | GI50 [30] 15.8 µM | GI50 [31] > 23.7 µM | GI50 [32] 8 µM | GI50 [33] > 20.7 µM | GI50 [34] > 23.9 µM | GI50 [35] > 25 µM | GI50 [36] 20.4 µM | GI50 [37] 18.1 µM | GI50 [38] > 25 µM | GI50 [39] 11.2 µM | GI50 [40] 9.91 µM | GI50 [41] 17.9 µM | GI50 [42] > 25 µM | GI50 [43] > 24.2 µM | GI50 [44] 15.5 µM | GI50 [45] > 23.5 µM | GI50 [46] 19.8 µM | GI50 [47] 14.6 µM | GI50 [48] > 25 µM | GI50 [49] 14 µM | GI50 [50] > 25 µM | GI50 [51] 11.8 µM | GI50 [52] 11.1 µM | GI50 [53] 19.7 µM | GI50 [54] 12.5 µM | GI50 [55] 19.2 µM | GI50 [56] 15.3 µM

COc1ccc(-c2ccc(/C=N/n3c(C)n[nH]c3=S)o2)c([N+](=O)[O-])c1
inactive: GI50 [1] > 100 µM | GI50 [57] > 100 µM | GI50 [2] 32.8 µM | GI50 [3] > 100 µM | GI50 [4] > 100 µM | GI50 [5] > 100 µM | GI50 [6] 69.1 µM | GI50 [7] > 100 µM | GI50 [8] > 100 µM | GI50 [9] > 100 µM | GI50 [10] > 100 µM | GI50 [11] > 100 µM | GI50 [12] 93 µM | GI50 [15] > 100 µM | GI50 [16] > 100 µM | GI50 [17] > 100 µM | GI50 [18] 91.1 µM | GI50 [20] > 100 µM | GI50 [21] 39.4 µM | GI50 [22] > 100 µM | GI50 [23] > 100 µM | GI50 [26] > 100 µM | GI50 [27] > 100 µM | GI50 [28] 36.3 µM | GI50 [29] > 100 µM | GI50 [30] > 100 µM | GI50 [31] > 100 µM | GI50 [32] > 100 µM | GI50 [33] 46 µM | GI50 [34] 47.5 µM | GI50 [35] > 100 µM | GI50 [36] > 100 µM | GI50 [38] > 100 µM | GI50 [39] > 100 µM | GI50 [41] 84 µM | GI50 [42] 54.1 µM | GI50 [43] > 100 µM | GI50 [44] > 100 µM | GI50 [45] > 100 µM | GI50 [46] > 100 µM | GI50 [48] > 100 µM | GI50 [49] > 100 µM | GI50 [50] > 100 µM | GI50 [52] > 100 µM | GI50 [53] > 100 µM | GI50 [54] > 100 µM | GI50 [55] > 100 µM | GI50 [58] 12.4 µM | GI50 [56] > 100 µM
> 100 µM: TGI [1] | TGI [57] | TGI [2] | TGI [3] | TGI [4] | TGI [5] | TGI [6] | TGI [7] | TGI [8] | TGI [9] | TGI [10] | TGI [11] | TGI [12] | TGI [15] | TGI [16] | TGI [17] | TGI [18] | TGI [20] | TGI [21] | TGI [22] | TGI [23] | TGI [26] | TGI [27] | TGI [28] | TGI [29] | TGI [30] | TGI [31] | TGI [32] | TGI [33] | TGI [34] | TGI [35] | TGI [36] | TGI [38] | TGI [39] | TGI [41] | TGI [42] | TGI [43] | TGI [44] | TGI [45] | TGI [46] | TGI [48] | TGI [49] | TGI [50] | TGI [52] | TGI [53] | TGI [54] | TGI [55] | TGI [56]
45.4 µM: TGI [58]

Reference: PubChem BioAssay (NCI)
